These results are taken from patent publication US20130253022A1 (FOX CHASE CHEMICAL DIVERSITY CENTER, INC., priority 2010, published 2013).

The structures appear in SMILES notation. pEC50: −log10 of the molar value.

As a reminder, the ED50 is the dose that gives a 50% effect, or the effect in half of the subjects. The term pEC50 denotes −log10 of the EC50, conventionally taken in molar units.

For experiment [1], the system named is pentylenetetrazol-induced clonic seizures. The experiment in a line: Subcutaneous pentylenetetrazol seizure test (scPTZ), rat. The format is in vivo, Sprague-Dawley rats. Conditions: pentylenetetrazol 70 mg/kg s.c., test compound orally, read-out: Rat PTZ ED50, s.c. The protocol: (§1) Methods to measure anticonvulsant activity: All tests were conducted by the Anticonvulsant Screening Program (ASP) of the National Institute of Neurological Disease and Stroke at the National Institutes of Health. The subcutaneous pentylenetetrazol (metrazol) seizure test (scPTZ). This model primarily identifies compounds that raise seizure threshold. The behavioral seizure produced is not typical of absence epilepsy but clonic in nature. With some minor exceptions, the pharmacological profile of the scPTZ seizure model is consistent with the human condition. The scPTZ test utilizes a dose of pentylenetetrazol (85 mg/kg in Carworth Farms No. 1 mice and 70 mg/kg in Sprague-Dawley rats). This produces clonic seizures lasting for a period of at least five seconds in 97 percent of animals tested. At the anticipated time of testing the convulsant is administered subcutaneously. The test compound is administered intraperitoneally in mice and orally in rats. Animals are observed over a 30 minute period. Absence of clonic spasms in the observed time period indicates a compound's ability to abolish the effect of pentylenetetrazol on seizure threshold (Swinyard E A. Laboratory evaluation of antiepileptic drugs: review of laboratory methods. Epilepsia, 1969, 10, 107-119).

Experiment [2] has the same test system. As to the kind of experiment: Subcutaneous pentylenetetrazol seizure test (scPTZ), mouse. The format is in vivo, Carworth Farms No. 1 mice. To be noted: pentylenetetrazol 85 mg/kg s.c., test compound intraperitoneally, read-out: Mouse PTZ ED50, s.c. As to the method:
as §1

The next experiment concerns Hippocampal Cultures. The experiment in a line: Neuroprotection from hydrogen peroxide (oxidative stress), CFDA assay. The format is cell-based. Conditions: Rattus norvegicus; 10 μM hydrogen peroxide, hippocampal cultures, 4 hour test period; read-out: NP from Hydrogen Peroxide CFDA EC50. An excerpt: Cell cultures: All compounds are screened with dissociated hippocampal cultures derived from embryonic day 18 rats as the primary test system. With this preparation, primary neurons are used to test for toxicity as well as neuroprotection in a highly relevant experimental system to epilepsy. In brief, hippocampal tissue are obtained commercially through Brain Bits (Springfield, Ill.) and cultures prepared as previously described by Brewer (Brewer, G. J. Serum-free B27/neurobasal medium supports differentiated growth of neurons from the striatum, substantia nigra, septum, cerebral cortex, cerebellum and dentate gyms, J. Neurosci. Res. 1995, 42, 674-683). The hippocampal neurons are platted at low density (10,000 cell/well) in a 96-well format and maintained in serum-free medium consisting of Neurobasal Medium supplemented with B27 and GlutaMAX (Gibco). Pre-coated poly-L-lysine coated plates are used because of the preferential adherence and survival of hippocampal neurons on this matrix support.
Potent neuroprotection is the distinguishing characteristic that separates this program's anticonvulsants from all other commercial drugs for epilepsy. The experimental details and the rationale for the implemented assays are essential in differentiating these compounds from that of others. The central objective of all neuroprotective assays was their relevancy to excitotoxicity and oxidative stress related to epilepsy. Both the amount of glutamate and hydrogen peroxide used in the assays, as well as the time of treatment and duration of the experiment, were designed to be relevant to epilepsy. Further, all time parameters employed in these studies were empirically determined to be within the limits of reversible toxic events, yet using amounts of glutamate and hydrogen peroxide that were relevant to the disease. In regard to glutamate toxicity, a critical feature was the duration of treatment of the hippocampal neurons. The rational for using a short 5 min treatment with glutamate was based on the observation of Randall and Thayer (Randall, R. D.; Thayer, S. A. Glutamate-induced calcium transient triggers calcium overload and neurotoxicity in rat hippocampal neurons, J. Neurosci. 1992, 12, 1882-1895). […] The rationale is that this intense burst of glutamate and resulting calcium overload is relevant to seizures and therefore was important data to capture in the screening assay. The amount of glutamate (30 μM) employed in our screening was based on the basal levels of glutamate observed in microdialysis measurements of hippocampus from epileptogenic patients (Cavus et al. Decreased hippocampal volume on MRI is associated with increased extracellular glutamate in epilepsy patients, Epilepsia, 2008, 49, 1358-1366). In regard to hydrogen peroxide, the amount employed (10 μM) was detected in the hippocampus of rats after kainate-induced status epilepticus (Jarrett et. al., Mitochondrial DNA damage and impaired base excision repair during epileptogenesis, Neurobiol. Dis. 2008, 30, 130-138). To produce neural damage and death with these amounts of glutamate and hydrogen peroxide, the cultures were changed to a medium with significant depletion of antioxidant components in the defined medium supplement B-27 just prior to treatment with the compounds. This was performed to obtain a significant and reproducible toxic signal in the hippocampal neurons and because loss of antioxidant control may be a component of epileptogenesis (Waldbaum and Patel, Mitochondria, oxidative stress and temporal lobe epilepsy, Epilepsy Res. 2010 88, 23-45; Wu et al., Mitochondrial DNA mutation-elicited oxidative stress, oxidative damage, and altered gene expression in cultured cells of patients with MERRF syndrome, Mol. Neurobiol. 2010, 41, 256-266). Neuroprotection studies with hydrogen peroxide were conducted with cultures that were between day 12 and day 18. Studies of neuroprotection glutamate were conducted between day 19 and day 22. […]

Turning to `NS(=O)(=O)NCC(F)(F)c1ccccc1F` [Example 1, 2,2-Difluoro-2-(2-fluorophenyl)-ethyl-1-sulfamide], the ED50 in experiment [1] was 107 mg/kg; in experiment [2], 108 mg/kg. Further, the pEC50 in the experiment with Hippocampal Cultures was 9.00.

Turning to `NS(=O)(=O)NCC(F)(F)c1ccccc1Cl` [Example 2, 2,2-Difluoro-2-(2-chlorophenyl)-ethyl-1-sulfamide], the ED50 was found to be 48 mg/kg in experiment [1] and 98 mg/kg in experiment [2]. Further, the negative-log EC50 (pEC50) in the experiment with Hippocampal Cultures was 10.00.
